Measurements taken from patent publication US9783505B2, “Substituted diaminopyrimidyl compounds, compositions thereof, and methods of treatment therewith” (Signal Pharmaceuticals, LLC, priority 2013, dated 2017).

How the values were obtained:
His-PKC-theta = target: T1, His-PKC-theta (Homo sapiens, UniProt Q04759); test: PKC-theta Assay (384-well time resolved fluorescence, IMAP TR-FRET); type: biochemical; conditions: read-out: Act. Level (IC50 in the PKC-theta Assay)
T1 construct: His; purchased Invitrogen
T1 sequence (Q04759 whole entry): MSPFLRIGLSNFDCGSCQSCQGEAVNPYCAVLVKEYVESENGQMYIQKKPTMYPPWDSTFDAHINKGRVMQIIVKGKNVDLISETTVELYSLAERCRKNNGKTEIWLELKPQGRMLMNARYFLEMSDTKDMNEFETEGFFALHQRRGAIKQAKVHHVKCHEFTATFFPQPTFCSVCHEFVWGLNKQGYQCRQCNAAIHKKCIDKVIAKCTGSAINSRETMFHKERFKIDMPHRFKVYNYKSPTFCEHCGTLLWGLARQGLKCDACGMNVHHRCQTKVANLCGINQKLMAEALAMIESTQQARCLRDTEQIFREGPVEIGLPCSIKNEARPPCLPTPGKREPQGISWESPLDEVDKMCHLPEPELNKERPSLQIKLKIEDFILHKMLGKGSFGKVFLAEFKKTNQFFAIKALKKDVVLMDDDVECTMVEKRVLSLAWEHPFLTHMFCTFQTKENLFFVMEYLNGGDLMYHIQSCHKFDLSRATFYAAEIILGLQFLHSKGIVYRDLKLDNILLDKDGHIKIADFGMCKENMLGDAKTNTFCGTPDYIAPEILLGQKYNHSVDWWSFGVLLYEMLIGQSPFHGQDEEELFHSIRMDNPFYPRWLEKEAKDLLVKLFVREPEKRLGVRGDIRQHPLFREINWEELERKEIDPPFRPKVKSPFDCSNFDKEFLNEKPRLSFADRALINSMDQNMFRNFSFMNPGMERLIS
Outline: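 Fam-labeled S6-derived peptide (200 nM) and 10 μM ATP were reacted with 142 pM enzyme for 2 h at room temperature in HEPES pH 7.6 buffer with MgCl2, DTT, Triton X-100, BSA and EDTA. The reaction was stopped with IMAP progressive binding reagent plus Tb donor, incubated overnight, then TR-FRET read.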

PKC delta = target: T2, PKC delta (Homo sapiens, UniProt Q05655); test: PKC delta Assay (384-well time resolved fluorescence, IMAP TR-FRET); type: biochemical; conditions: selectivity for PKC-theta over PKC-delta
T2 construct: purchased Invitrogen
T2 sequence (Q05655 whole entry): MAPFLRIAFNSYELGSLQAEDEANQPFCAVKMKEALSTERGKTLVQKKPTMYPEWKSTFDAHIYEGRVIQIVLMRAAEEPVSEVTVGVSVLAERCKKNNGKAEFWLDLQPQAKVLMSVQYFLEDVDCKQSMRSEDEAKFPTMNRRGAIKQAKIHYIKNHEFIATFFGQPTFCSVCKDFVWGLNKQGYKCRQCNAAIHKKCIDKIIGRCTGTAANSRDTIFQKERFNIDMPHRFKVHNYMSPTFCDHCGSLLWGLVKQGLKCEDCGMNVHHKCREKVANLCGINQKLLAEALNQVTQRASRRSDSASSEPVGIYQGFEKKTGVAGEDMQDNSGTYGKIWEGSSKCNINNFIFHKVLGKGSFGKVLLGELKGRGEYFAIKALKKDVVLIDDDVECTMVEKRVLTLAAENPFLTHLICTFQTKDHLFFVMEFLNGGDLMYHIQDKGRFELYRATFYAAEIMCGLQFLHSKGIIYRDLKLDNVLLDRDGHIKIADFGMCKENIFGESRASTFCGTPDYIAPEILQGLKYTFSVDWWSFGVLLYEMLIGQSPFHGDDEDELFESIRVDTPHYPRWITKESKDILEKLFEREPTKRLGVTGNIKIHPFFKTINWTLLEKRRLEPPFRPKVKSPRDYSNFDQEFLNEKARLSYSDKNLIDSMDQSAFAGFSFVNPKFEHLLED
Method: PKC delta Assay. A 384-well time resolved fluorescence assay was used to monitor PKC delta activity. The PKC delta assay was run in the following assay buffer: 50 mM HEPES pH 7.6, 10 mM MgCl2, 1 mM DTT, 0.01% Triton X-100, 0.01% BSA and 0.1 mM EDTA. To initiate the reaction, 200 nM of Fam-labeled S6-derived peptide (Molecular Devices) and 10 μM of ATP were mixed with 1.5 nM of PKC delta (Invitrogen), for a total assay volume of 25 μL in each well. The assay was incubated at room temperature for 2 hours and terminated using a 60 μL/well mixture of Detection Binding Solution: 70% IMAP Progressive Binding Buffer A, 30% IMAP Progressive Binding Buffer B, 1:600 Progressive Binding Reagent, and 1:400 TR-FRET Tb Donor (Molecular Devices). The assay plates were then incubated overnight at room temperature and read on the Perkin-Elmer Envision Reader.

Structure (SMILES)	IC50 (His-PKC-theta)	Sel. Level (ratio of IC50 PKC-delta/IC50 PKC-theta) (PKC delta)
Cc1cnccc1CCNc1ncc(C#N)c(N[C@@H]2C[C@H](O)C2(C)C)n1 [Cmpd 268]	800 to 2000 nM	G (selectivity between 5- and 20-fold (selectivity level G))
C[C@]1(O)CC2(C[C@H](Nc3nc(NCCC4C(=O)Nc5ccccc54)ncc3C#N)C2)C1 (some centres unmarked) [Cmpd 302]	800 to 2000 nM	G (selectivity between 5- and 20-fold (selectivity level G))
CC1(C)[C@H](O)CCC[C@@H]1Nc1nc(NCCC2C(=O)Nc3ccc(F)cc32)ncc1C#N (some centres unmarked) [Cmpd 315]	100 to 800 nM	G (selectivity between 5- and 20-fold (selectivity level G))
CC1(C)[C@@H](O)C[C@H]1Nc1nc(NCCc2cc3ccccc3[nH]2)ncc1C#N [Cmpd 237]	800 to 2000 nM	G (selectivity between 5- and 20-fold (selectivity level G))
CC1(C)C[C@H](Nc2nc(NCCc3ccccn3)ncc2C#N)CC[C@@H]1O [Cmpd 282]	2000 to 10000 nM	H (selectivity level of 5-fold or less (selectivity level H))
CC1(C)C[C@H](Nc2nc(NCCc3cc4cc(C#N)ccc4[nH]3)ncc2C#N)CC[C@@H]1O [Cmpd 251]	100 to 800 nM	G (selectivity between 5- and 20-fold (selectivity level G))
Cc1ccc(CCNc2ncc(C#N)c(N[C@@H]3C[C@H](O)C3(C)C)n2)cn1 [Cmpd 235]	2000 to 10000 nM	H (selectivity level of 5-fold or less (selectivity level H))
CC1(C)[C@@H](O)C[C@H]1Nc1nc(NCCc2c[nH]c3cc(F)ccc23)ncc1C#N [Cmpd 265]	100 to 800 nM	G (selectivity between 5- and 20-fold (selectivity level G))
Cc1cccc2c1NC(=O)C2CCNc1ncc(C#N)c(N[C@@H]2CC[C@H](O)C(C)(C)C2)n1 (some centres unmarked) [Cmpd 248]	< 100 nM	F (selectivity of between 20- and 100-fold (selectivity level F))
CC(F)(F)COc1ncncc1CNc1ncc(C#N)c(N[C@H]2CC3(C2)C[C@](C)(O)C3)n1 (some centres unmarked) [Cmpd 294]	100 to 800 nM	F (selectivity of between 20- and 100-fold (selectivity level F))
Cc1cccn1CCNc1ncc(C#N)c(N[C@H]2CC[C@@H](C(N)=O)CC2)n1 [Cmpd 324]	800 to 2000 nM	G (selectivity between 5- and 20-fold (selectivity level G))
CC1(C)C[C@H](Nc2nc(NCCn3ccc4ccccc43)ncc2C#N)CC[C@@H]1O [Cmpd 202]	2000 to 10000 nM	H (selectivity level of 5-fold or less (selectivity level H))
Cc1cccnc1CCNc1ncc(C#N)c(N[C@@H]2CC[C@H](O)C(C)(C)C2)n1 [Cmpd 214]	2000 to 10000 nM	H (selectivity level of 5-fold or less (selectivity level H))
CC1(C)C[C@H](Nc2nc(NCCn3cccc3)ncc2C#N)CC[C@@H]1O [Cmpd 201]	100 to 800 nM	F (selectivity of between 20- and 100-fold (selectivity level F))
CC1(C)[C@@H](O)C[C@H]1Nc1nc(NCCn2cccc2)ncc1C#N [Cmpd 238]	100 to 800 nM	G (selectivity between 5- and 20-fold (selectivity level G))
CC1(C)C(O)C[C@H]1Nc1nc(NCCc2cccnc2)ncc1C#N (some centres unmarked) [Cmpd 231]	800 to 2000 nM	G (selectivity between 5- and 20-fold (selectivity level G))
CC(F)(F)COc1ncncc1CNc1ncc(C#N)c(N[C@H]2CCC[C@@](C)(O)C2)n1 [Cmpd 287]	100 to 800 nM	F (selectivity of between 20- and 100-fold (selectivity level F))
CC1(C)[C@@H](O)C[C@H]1Nc1nc(NCCc2ccon2)ncc1C#N [Cmpd 228]	800 to 2000 nM	G (selectivity between 5- and 20-fold (selectivity level G))
CC1(C)C[C@H](Nc2nc(NCCc3nc4ccccc4o3)ncc2C#N)CC[C@@H]1O [Cmpd 205]	2000 to 10000 nM	H (selectivity level of 5-fold or less (selectivity level H))

Structure (SMILES)	IC50 (His-PKC-theta)	Sel. Level (ratio of IC50 PKC-delta/IC50 PKC-theta) (PKC delta)
CC(F)(F)COc1ncncc1CNc1ncc(C#N)c(N[C@@H]2C[C@](C)(O)C2(C)C)n1 [Cmpd 333]	< 100 nM	E (selectivity (Sel. Level=ratio of IC50 PKC-delta/IC50 PKC-theta) of >100-fold (selectivity level E))
CC1(C)C[C@H](Nc2nc(NCC[C@]3(C)C(=O)Nc4ccccc43)ncc2C#N)CC[C@@H]1O [Cmpd 303]	2000 to 10000 nM	H (selectivity level of 5-fold or less (selectivity level H))
CC1(C)C[C@H](Nc2nc(NCCc3ccncc3)ncc2C#N)CC[C@@H]1O [Cmpd 280]	100 to 800 nM	G (selectivity between 5- and 20-fold (selectivity level G))
Cc1ncccc1CCNc1ncc(C#N)c(N[C@@H]2CC[C@H](O)C(C)(C)C2)n1 [Cmpd 258]	100 to 800 nM	F (selectivity of between 20- and 100-fold (selectivity level F))
CC1(C)C[C@H](Nc2nc(NCCn3cncn3)ncc2C#N)CC[C@@H]1O [Cmpd 223]	2000 to 10000 nM	H (selectivity level of 5-fold or less (selectivity level H))
CC1(C)[C@@H](O)C[C@H]1Nc1nc(NCCc2cncc(C(F)(F)F)c2)ncc1C#N [Cmpd 274]	800 to 2000 nM	G (selectivity between 5- and 20-fold (selectivity level G))
CC1(C)C[C@H](Nc2nc(NCCn3ccc(-c4ccccc4)n3)ncc2C#N)CC[C@@H]1O [Cmpd 209]	2000 to 10000 nM	H (selectivity level of 5-fold or less (selectivity level H))
CC1(C)[C@@H](c2nc[nH]n2)C[C@H]1Nc1nc(NCCC2C(=O)Nc3ccccc32)ncc1C#N (some centres unmarked) [Cmpd 317]	< 100 nM	E (selectivity (Sel. Level=ratio of IC50 PKC-delta/IC50 PKC-theta) of >100-fold (selectivity level E))
CC1(C)C[C@H](Nc2nc(NCCc3c[nH]c4cnccc34)ncc2C#N)CC[C@@H]1O [Cmpd 283]	100 to 800 nM	F (selectivity of between 20- and 100-fold (selectivity level F))
CN1C(=O)C(CCNc2ncc(C#N)c(N[C@@H]3CC[C@H](O)C(C)(C)C3)n2)c2ccccc21 (some centres unmarked) [Cmpd 300]	800 to 2000 nM	G (selectivity between 5- and 20-fold (selectivity level G))
CC1(C)C[C@H](Nc2nc(NCC[C@@]3(C)C(=O)Nc4ccccc43)ncc2C#N)CC[C@@H]1O [Cmpd 304]	100 to 800 nM	F (selectivity of between 20- and 100-fold (selectivity level F))
COc1cncc(CCNc2ncc(C#N)c(N[C@@H]3CC[C@H](O)C(C)(C)C3)n2)c1 [Cmpd 329]	100 to 800 nM	G (selectivity between 5- and 20-fold (selectivity level G))
CCOc1cccc(CCNc2ncc(C#N)c(N[C@@H]3CC[C@H](O)C(C)(C)C3)n2)n1 [Cmpd 257]	800 to 2000 nM	G (selectivity between 5- and 20-fold (selectivity level G))
CC(F)(F)COc1ncncc1CNc1ncc(C#N)c(N[C@H]2CCC[C@@H](O)C2(C)C)n1 [Cmpd 298]	< 100 nM	E (selectivity (Sel. Level=ratio of IC50 PKC-delta/IC50 PKC-theta) of >100-fold (selectivity level E))
Cc1nc(CCNc2ncc(C#N)c(N[C@@H]3CC(O)C3(C)C)n2)no1 (some centres unmarked) [Cmpd 233]	2000 to 10000 nM	H (selectivity level of 5-fold or less (selectivity level H))
COc1cccc(CCNc2ncc(C#N)c(N[C@H]3CC[C@@H](O)CC3)n2)n1 [Cmpd 327]	2000 to 10000 nM	H (selectivity level of 5-fold or less (selectivity level H))
CC1(C)[C@H](O)CCC[C@H]1Nc1nc(NCCC2C(=O)Nc3ccccc32)ncc1C#N (some centres unmarked) [Cmpd 306]	100 to 800 nM	H (selectivity level of 5-fold or less (selectivity level H))
Cc1[nH]c2cc(Cl)cc(Cl)c2c1CCNc1ncc(C#N)c(N[C@@H]2CC[C@H](O)C(C)(C)C2)n1 [Cmpd 254]	100 to 800 nM	G (selectivity between 5- and 20-fold (selectivity level G))
